Assay [1] concerns the target T1, human NaV1.5 channel current (I Na) (Homo sapiens, UniProt Q14524).
T1 construct: host or cells: HEK 293, transient (lipofectamine)
The assay is described as follows: NaV1.5 channel current (I Na), patch‐clamp in HEK cells. Type of assay: cell-based. The following applies: room temperature. The source says: The hERG‐encoded voltage‐dependent potassium channel current (I hERG) cells to be studied were harvested with Detachin solution and either diluted with a volume of CHO cell serum‐free media (supplemented with 100 IU·ml^−1 of penicillin/streptomycin and 25‐mM HEPES) to obtain cells, for which the cell density was ~4 x10^6 cells·ml^−1, or plated on glass coverslips and used on the following 1–2 days. HEK 293 cells were transiently transfected using lipofectamine (Invitrogen, USA), with a human sodium voltage‐gated channel subunit 5 (hSCN5) A (transcript variant 2)‐containing plasmid, in Optimem medium. After a 5‐h incubation period, the transfection medium was replaced with the normal growth medium. The cells were harvested by trypsinization, centrifuged and resuspended in the appropriate extracellular solution for performing studies the next day. CHO–5‐HT2B cells were plated into 96‐well plates on the previous day, at a density of 4 x10^4 cells per well, with a modified version of the growth media.
Manual patch‐clamp recordings of membrane currents (I NCX, L‐type Ca^2+ channel current [I CaL], human cardiac sodium 1.5 current [I Na], and I hERG) were undertaken using either an Axopatch 200B or Axopatch ID amplifier (Molecular Devices, USA), using the whole‐cell configuration. […]

In assay [2] the test system is guinea pig papillary muscle. Description: In vitro contraction dynamics in guinea pig papillary muscle. To be noted: 1 Hz, 37°C. An excerpt:
Guinea pigs (both sex, body weight ranging 342–565 g, Dunkin Hartley, M&B A/S, Ry, Denmark) were used in the study. The animals were housed in solid bottom polycarbonate cages (Makrolon® IV, 385 × 590 × 200 mm) with stainless steel wire mesh lids, up to three animals of same sex per cage. Autoclaved aspen chips (Tapvei Ky, Kaavi, Finland) were used as bedding. A commercially available rodent SDS FD1 (P) SQC pellet diet (Special Diet Services Ltd, Witham, England) and tap water from the public supply (Espoon vesilaitos, Espoo, Finland) were available ad libitum in polycarbonate bottles (800–1,000 ml) with plastic caps (Scanbur A/S, Ejby, Denmark).
Guinea pigs were killed by a blow on the skull and the heart will be excised. Right ventricular papillary muscle was dissected and rinsed in ice‐cold Tyrode's solution. […]
The signal was acquired with a validated acquisition system ACFO v1.0 (Fision Oy, Finland). The following parameters were measured: twitch tension (Tw), rest tension (RT), time to peak tension (TTP), and half relaxation time (HRT). […]
The baseline twitch tensions were measured after a stabilization period of 20–40 min. Thereafter, vehicle (1.1% DMSO) or ORM‐11372 in Tyrode's solution was superfused into the cuvette for 15 min, and the effects were measured from the steady‐state level. […]

pIC50: −log10 of the molar value. Entries after “also recorded” stand apart in the source; their conditions may differ.

T1 sequence (Q14524 1-2015 isoform Q14524-2): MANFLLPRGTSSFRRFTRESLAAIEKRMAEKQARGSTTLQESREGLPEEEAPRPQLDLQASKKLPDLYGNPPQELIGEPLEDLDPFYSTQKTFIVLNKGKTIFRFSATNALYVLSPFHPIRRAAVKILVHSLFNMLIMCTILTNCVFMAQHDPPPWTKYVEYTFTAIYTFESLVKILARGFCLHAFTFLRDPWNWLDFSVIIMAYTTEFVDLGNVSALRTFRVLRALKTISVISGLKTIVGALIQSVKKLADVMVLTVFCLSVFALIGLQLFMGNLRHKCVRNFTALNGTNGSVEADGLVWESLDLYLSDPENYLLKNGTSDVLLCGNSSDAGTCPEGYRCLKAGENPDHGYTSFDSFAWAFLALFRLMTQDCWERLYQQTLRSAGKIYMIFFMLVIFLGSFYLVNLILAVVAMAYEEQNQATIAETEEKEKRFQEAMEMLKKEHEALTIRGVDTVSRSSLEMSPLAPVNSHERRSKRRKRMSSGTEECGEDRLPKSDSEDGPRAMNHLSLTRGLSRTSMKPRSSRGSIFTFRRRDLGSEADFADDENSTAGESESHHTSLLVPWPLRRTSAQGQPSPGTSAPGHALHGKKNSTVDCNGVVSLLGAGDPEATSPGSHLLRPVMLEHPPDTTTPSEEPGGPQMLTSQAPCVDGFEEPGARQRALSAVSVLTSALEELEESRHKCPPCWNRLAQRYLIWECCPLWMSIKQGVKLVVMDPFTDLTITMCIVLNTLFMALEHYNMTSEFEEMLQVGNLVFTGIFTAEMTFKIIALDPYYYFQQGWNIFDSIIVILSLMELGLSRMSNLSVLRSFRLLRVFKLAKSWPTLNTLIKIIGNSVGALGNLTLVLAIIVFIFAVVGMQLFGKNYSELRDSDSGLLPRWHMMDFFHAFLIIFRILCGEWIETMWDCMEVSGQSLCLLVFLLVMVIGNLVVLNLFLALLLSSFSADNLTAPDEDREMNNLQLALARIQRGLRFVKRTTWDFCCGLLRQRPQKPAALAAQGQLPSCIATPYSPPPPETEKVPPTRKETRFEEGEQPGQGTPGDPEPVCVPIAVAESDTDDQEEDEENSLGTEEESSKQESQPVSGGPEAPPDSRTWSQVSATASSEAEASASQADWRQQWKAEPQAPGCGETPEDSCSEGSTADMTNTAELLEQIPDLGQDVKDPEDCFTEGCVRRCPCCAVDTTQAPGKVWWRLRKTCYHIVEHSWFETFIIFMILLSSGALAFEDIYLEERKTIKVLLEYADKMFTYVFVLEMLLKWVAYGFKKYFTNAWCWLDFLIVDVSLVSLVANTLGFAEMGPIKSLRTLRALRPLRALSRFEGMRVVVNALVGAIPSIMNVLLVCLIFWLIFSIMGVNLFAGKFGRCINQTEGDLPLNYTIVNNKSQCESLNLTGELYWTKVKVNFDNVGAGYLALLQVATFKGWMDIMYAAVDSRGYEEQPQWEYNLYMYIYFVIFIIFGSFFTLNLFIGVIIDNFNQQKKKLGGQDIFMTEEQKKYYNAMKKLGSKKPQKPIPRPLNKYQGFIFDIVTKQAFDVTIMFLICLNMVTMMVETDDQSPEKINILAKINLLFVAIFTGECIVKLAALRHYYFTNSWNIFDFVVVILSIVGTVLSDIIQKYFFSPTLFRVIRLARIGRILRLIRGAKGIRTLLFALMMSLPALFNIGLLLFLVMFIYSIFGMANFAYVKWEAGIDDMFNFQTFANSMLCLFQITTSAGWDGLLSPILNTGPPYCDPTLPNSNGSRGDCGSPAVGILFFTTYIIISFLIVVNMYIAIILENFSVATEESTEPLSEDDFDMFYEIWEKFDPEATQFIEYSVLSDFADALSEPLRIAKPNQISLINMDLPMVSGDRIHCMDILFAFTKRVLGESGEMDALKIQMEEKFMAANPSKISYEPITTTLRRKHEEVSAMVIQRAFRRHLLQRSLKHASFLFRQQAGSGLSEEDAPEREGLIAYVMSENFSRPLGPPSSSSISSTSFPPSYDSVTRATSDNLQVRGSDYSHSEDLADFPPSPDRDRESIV

Take `Nc1cccc(-c2ccc(CNc3ccc(F)cc3)o2)c1` [ORM‐11372]: in assay [1], the negative logarithm of the IC50 (pIC50) was 4.63. For the same compound, the half relaxation time entry in assay [2] was “unchanged; also recorded: did not affect”. Moreover, the twitch tension entry in assay [2] (compared with vehicle) is given as “increased”.

The values above are taken from article PMC7707092, “Discovery and characterization of ORM‐11372, a novel inhibitor of the sodium‐calcium exchanger with positive inotropic activity” (British Journal of Pharmacology, 2020).
